Reference: US11850247B2, “Antiviral compounds” (REGENTS OF THE UNIVERSITY OF MINNESOTA, priority 2020, dated 2023)

Key:
[1] = tested on: HIV-1; assay: Anti-HIV-1 activity in TZM-GFP cells (viral LTR-activated GFP expression); format: cell-based; settings: for inhibition at 2 µM: Human immunodeficiency virus 1, 2 μM compound; for inhibition at 2 µM / inhibition at 20 µM: HIV-1 MOI=1; for inhibition at 20 µM: Human immunodeficiency virus 1, 20 μM compound; for EC50: Human immunodeficiency virus 1, HIV-1 strain MOI=1, GFP positive cells counted after 48 hours
Experimental: The potency of HIV-1 inhibition by a compound was based on its inhibitory effect on viral LTR-activated GFP expression compared with that of compound-free (DMSO) controls. Briefly, TZM-GFP cells were plated at density of 1×10^4 cells per well in a 96-well plate. 24 hours later, media was replaced with increasing concentrations of compound. 24 hours post treatment, cells were exposed to an HIV-1 strain (MOI=1).
(§1) The cytotoxicity of each compound was also determined in TZM-GFP cells. Cells were plated at a density of 1×10^4 cells per well in a 96-well plate and were continuously exposed to increasing concentrations of a compound for 72 hours. The number of viable cells in each well was determined using a Cell Proliferation Kit II (XTT), and 50% cytotoxicity concentration (CC50) values were determined. All the cell-based assays were conducted in duplicate and in at least two independent experiments. For the EC50 and CC50 dose responses, values were plotted in GraphPad Prism 5 and analyzed with the log (inhibitor) vs. normalized response-variable slope equation. Final values were calculated in each independent assay and the average values were determined. Statistical analysis (calculation of standard deviation) was performed by using Microsoft Excel.

[2] = Cytotoxicity in TZM-GFP cells (XTT); format: cell-based; settings: human, 72 hours exposure, XTT
Experimental: as §1

[3] = target: covalently-crosslinked hexameric CA A14C/E45C/W184A/M185A (CA121) (Human immunodeficiency virus type 1 group M subtype B, UniProt P12493, A146C/E177C/M317A/W316A); assay: Thermal shift assay (TSA), CA hexamer stability; format: binding, HIV-1; settings: compound 20 μM, ΔTm=Tm−T0 vs DMSO

With `Cc1cccc2c1NC(=O)C2CC(=O)N[C@@H](Cc1ccccc1)C(=O)N(C)c1ccccc1` (stereo partly drawn) [Example 1, (2S)—N-methyl-2-(2-(7-methyl-2-oxoindolin-3-yl)acetamido)-N,3-diphenylpropanamide] the inhibition at 2 µM [1] was 0%, the inhibition at 20 µM [1] was 91% and the CC50 at 72 h [2] was > 50 µM. For the same molecule, the “TSA ΔTm (° C.)” value [3] was −1.2 °C.

For `COc1ccc2[nH]cc(CC(=O)N[C@@H](Cc3ccccc3)c3ncccc3-c3ccc(Cl)cc3)c2c1` [Example 55, (S)-2-(5-methoxy-1H-indol-3-yl)-N-(2-phenyl-1-(3-(4-chlorophenyl)pyridin-2-yl)ethyl)acetamide], the EC50 [1] was 1.4 ± 0.7 µM and the “TSA ΔTm (° C.)” value [3] was 7.8 ± 0.3 °C.

In the case of `CN(C(=O)[C@H](Cc1ccccc1)NC(=O)CN1C(=O)NC2(CCCCC2)C1=O)c1ccc(Cl)cc1` [Example 27, N-(4-chlorophenyl)-2-(2-(2,4-dioxo-1,3-diazaspiro[4.5]decan-3-yl)acetamido)-N-methyl-3-phenylpropanamide], the EC50 [1] is reported as 2.5 ± 0.5 µM, the CC50 at 72 h [2] is reported as > 100 µM and the “TSA ΔTm (° C.)” value [3] is reported as 2.2 °C.

In the case of `COc1ccc2[nH]cc(CC(=O)N[C@@H](Cc3ccccc3)c3nccn3-c3ccc(Br)cc3)c2c1` [Example 62, (S)-2-(5-methoxy-1H-indol-3-yl)-N-(2-phenyl-1-(1-(4-bromophenyl)-1H-imidazol-2-yl)ethyl)acetamide], the EC50 [1] is reported as 3.5 ± 0.3 µM and the “TSA ΔTm (° C.)” value [3] is reported as 2.8 ± 0.3 °C.

With `Cc1cn(CC(=O)N[C@@H](Cc2ccccc2)C(=O)N(C)c2cccc(F)c2)c(=O)[nH]c1=O` [Example 47, (S)—N-(3-fluorophenyl)-N-methyl-2-(2-(5-methyl-2,4-dioxo-3,4-dihydropyrimidin-1(2H)-yl)acetamido)-3-phenylpropanamide] the inhibition at 2 µM [1] was 0%, the inhibition at 20 µM [1] was 74% and the CC50 at 72 h [2] was > 50 µM. For the same molecule, the “TSA ΔTm (° C.)” value [3] was 0.9 °C.

In the case of `Cc1cn(CC(=O)N[C@@H](Cc2ccccc2)C(=O)N(C)c2ccc(Cl)cc2)c(=O)[nH]c1=O` [Example 44, (S)—N-(4-chlorophenyl)-N-methyl-2-(2-(5-methyl-2,4-dioxo-3,4-dihydropyrimidin-1(2H)-yl)acetamido)-3-phenylpropanamide], the EC50 [1] is reported as 1.7 ± 0.2 µM, the CC50 at 72 h [2] is reported as > 50 µM and the “TSA ΔTm (° C.)” value [3] is reported as 1.7 °C.

In the case of `Cc1cn(CC(=O)N[C@@H](Cc2ccccc2)C(=O)N(C)c2ccccc2)c(=O)[nH]c1=O` [Example 42, (S)—N-methyl-2-(2-(5-methyl-2,4-dioxo-3,4-dihydropyrimidin-1(2H)-yl)acetamido)-N,3-diphenylpropanamide], the inhibition at 2 µM [1] is reported as 35%, the inhibition at 20 µM [1] is reported as 95% and the CC50 at 72 h [2] is reported as > 50 µM. For the same molecule, the “TSA ΔTm (° C.)” value [3] was 0.5 °C.

With `Cc1cccc2c1NC(=O)C2CC(=O)N[C@@H](Cc1ccccc1)C(=O)N(C)c1ccc(Cl)cc1` (stereo partly drawn) [Example 2, (2S)—N-(4-chlorophenyl)-N-methyl-2-(2-(7-methyl-2-oxoindolin-3-yl)acetamido)-3-phenylpropanamide] the inhibition at 2 µM [1] was 17%, the inhibition at 20 µM [1] was 96% and the CC50 at 72 h [2] was ~50 µM. For the same molecule, the “TSA ΔTm (° C.)” value [3] was −0.4 °C.

In the case of `Cc1ccc(C)c2c1NC(=O)C2CC(=O)N[C@@H](Cc1ccccc1)C(=O)N(C)c1cccc(F)c1` (stereo partly drawn) [Example 7, (2S)-2-(2-(4,7-dimethyl-2-oxoindolin-3-yl)acetamido)-N-(3-fluorophenyl)-N-methyl-3-phenylpropanamide], the EC50 [1] is reported as 5.2 ± 0.4 µM, the CC50 at 72 h [2] is reported as 60 ± 6 µM and the “TSA ΔTm (° C.)” value [3] is reported as −1.8 °C.

In the case of `O=C(Cc1c[nH]c2ccccc12)N[C@@H](Cc1ccccc1)c1ncccc1-c1ccc(Cl)cc1` [Example 54, (S)-2-(1H-indol-3-yl)-N-(2-phenyl-1-(3-(4-chlorophenyl)pyridin-2-yl)ethyl)acetamide], the EC50 [1] is reported as 0.79 ± 0.25 µM and the “TSA ΔTm (° C.)” value [3] is reported as 7.7 ± 0.2 °C.

In the case of `CN(C(=O)[C@H](Cc1ccccc1)NC(=O)CNC(=O)c1ccccc1)c1ccccc1` [Example 34, (S)—N-(2-((1-(methyl(phenyl)amino)-1-oxo-3-phenylpropan-2-yl)amino)-2-oxoethyl)benzamide], the inhibition at 2 µM [1] is reported as 15%, the inhibition at 20 µM [1] is reported as 96% and the CC50 at 72 h [2] is reported as > 50 µM. The “TSA ΔTm (° C.)” value [3] was 1.3 °C.

For `COc1ccc(N(C)C(=O)[C@H](Cc2ccccc2)NC(=O)CN2C(=O)NC3(CCCCC3)C2=O)cc1` [Example 23, 2-(2-(2,4-dioxo-1,3-diazaspiro[4.5]decan-3-yl)acetamido)-N-(4-methoxyphenyl)-N-methyl-3-phenylpropanamide], the EC50 [1] was 5.1 ± 2 µM, the CC50 at 72 h [2] was > 100 µM and the “TSA ΔTm (° C.)” value [3] was 1.8 °C.

For `CCN(C(=O)[C@H](Cc1ccccc1)NC(=O)Cc1ccc2ccccc2c1)c1ccccc1` [Example 15, (S)—N-ethyl-2-(2-(naphthalen-2-yl)acetamido)-N,3-diphenylpropanamide], the inhibition at 2 µM [1] was 46%, the inhibition at 20 µM [1] was 97% and the CC50 at 72 h [2] was < 50 µM. The “TSA ΔTm (° C.)” value [3] was 4.3 °C.

With `CN(C(=O)[C@H](Cc1ccccc1)NC(=O)CN1C(=O)NC2(CCCCC2)C1=O)c1ccc(F)cc1` [Example 25, 2-(2-(2,4-dioxo-1,3-diazaspiro[4.5]decan-3-yl)acetamido)-N-(4-fluorophenyl)-N-methyl-3-phenylpropanamide] the inhibition at 2 µM [1] was 9%, the inhibition at 20 µM [1] was 99% and the CC50 at 72 h [2] was > 50 µM. The “TSA ΔTm (° C.)” value [3] was 3.1 °C.

For `CN(C(=O)[C@H](Cc1ccccc1)NC(=O)Cn1c(=O)[nH]c2ccccc2c1=O)c1ccccc1` [Example 31, (S)-2-(2-(2,4-dioxo-1,4-dihydroquinazolin-3(2H)-yl)acetamido)-N-methyl-N,3-diphenylpropanamide], the EC50 [1] was 6.9 ± 0.8 µM, the CC50 at 72 h [2] was > 100 µM and the “TSA ΔTm (° C.)” value [3] was 2.7 °C.

In the case of `Cc1ccc(C)c2c1NC(=O)C2CC(=O)N[C@@H](Cc1ccccc1)C(=O)N(C)c1cccc(Cl)c1` (stereo partly drawn) [Example 9, (2S)—N-(3-chlorophenyl)-2-(2-(4,7-dimethyl-2-oxoindolin-3-yl)acetamido)-N-methyl-3-phenylpropanamide], the EC50 [1] is reported as 2.1 ± 0.2 µM, the CC50 at 72 h [2] is reported as 43 ± 2 µM and the “TSA ΔTm (° C.)” value [3] is reported as −2.4 °C.

With `CN(C(=O)[C@H](Cc1ccccc1)NC(=O)Cc1cccc2ccccc12)c1cccc(F)c1` [Example 20, (S)—N-(3-fluorophenyl)-N-methyl-2-(2-(naphthalen-1-yl)acetamido)-3-phenylpropanamide] the inhibition at 2 µM [1] was 44%, the inhibition at 20 µM [1] was 97% and the CC50 at 72 h [2] was < 50 µM. The “TSA ΔTm (° C.)” value [3] was 5.4 °C.

With `CN(C(=O)[C@H](Cc1ccccc1)NC(=O)CNC(=O)c1ccccc1)c1cccc(F)c1` [Example 39, (S)—N-(2-((1-((3-fluorophenyl)(methyl)amino)-1-oxo-3-phenylpropan-2-yl)amino)-2-oxoethyl)benzamide] the inhibition at 2 µM [1] was 3%, the inhibition at 20 µM [1] was 94% and the CC50 at 72 h [2] was > 50 µM. For the same molecule, the “TSA ΔTm (° C.)” value [3] was 0 °C.

With `COc1ccc2[nH]cc(CC(=O)N[C@@H](Cc3ccccc3)c3ncccc3-c3ccc(Br)cc3)c2c1` [Example 59, (S)-2-(5-methoxy-1H-indol-3-yl)-N-(2-phenyl-1-(3-(4-bromophenyl)pyridin-2-yl)ethyl)acetamide] the EC50 [1] was 2.1 ± 0.8 µM and the “TSA ΔTm (° C.)” value [3] was 6.3 ± 0.6 °C.

In the case of `CCn1cc(CC(=O)N[C@@H](Cc2ccccc2)c2ncccc2-c2ccc(Cl)cc2)c2ccccc21` [Example 57, (S)-2-(1-ethyl-1H-indol-3-yl)-N-(2-phenyl-1-(3-(4-chlorophenyl)pyridin-2-yl)ethyl)acetamide], the EC50 [1] is reported as 2.7 ± 0.2 µM and the “TSA ΔTm (° C.)” value [3] is reported as 6.6 ± 0.2 °C.

For `O=C(Cc1c[nH]c2ccc(O)cc12)N[C@@H](Cc1ccccc1)c1ncccc1-c1ccc(Cl)cc1` [Example 56, (S)-2-(5-hydroxy-1H-indol-3-yl)-N-(2-phenyl-1-(3-(4-chlorophenyl)pyridin-2-yl)ethyl)acetamide], the EC50 [1] was 0.31 ± 0.07 µM and the “TSA ΔTm (° C.)” value [3] was 8.7 ± 0.3 °C.

For `COc1ccc2[nH]cc(CC(=O)N[C@@H](Cc3ccccc3)c3nccn3-c3ccc(Cl)cc3)c2c1` [Example 61, (S)-2-(5-methoxy-1H-indol-3-yl)-N-(2-phenyl-1-(1-(4-chlorophenyl)-1H-imidazol-2-yl)ethyl)acetamide], the EC50 [1] was 3.3 ± 0.03 µM and the “TSA ΔTm (° C.)” value [3] was 4.0 ± 0.3 °C.

In the case of `CCn1cc(CC(=O)N[C@@H](Cc2ccccc2)c2ncccc2-c2ccc(Cl)cc2)c2cc(OC)ccc21` [Example 58, (S)-2-(1-ethyl-5-methoxy-1H-indol-3-yl)-N-(2-phenyl-1-(3-(4-chlorophenyl)pyridin-2-yl)ethyl)acetamide], the EC50 [1] is reported as 3.6 ± 0.2 µM and the “TSA ΔTm (° C.)” value [3] is reported as 5.9 ± 0.2 °C.

For `COc1ccc2[nH]cc(CC(=O)N[C@@H](Cc3ccccc3)c3nccn3-c3ccc(I)cc3)c2c1` [Example 63, (S)-2-(5-methoxy-1H-indol-3-yl)-N-(2-phenyl-1-(1-(4-iodophenyl)-1H-imidazol-2-yl)ethyl)acetamide], the EC50 [1] was 3.3 ± 0.2 µM and the “TSA ΔTm (° C.)” value [3] was 2.7 ± 0.1 °C.

With `CCn1cc(CC(=O)N[C@@H](Cc2ccccc2)c2ncccc2-c2ccc(Br)cc2)c2ccccc21` [Example 60, (S)-2-(1-ethyl-1H-indol-3-yl)-N-(2-phenyl-1-(3-(4-bromophenyl)pyridin-2-yl)ethyl)acetamide] the EC50 [1] was 3.2 ± 0.3 µM and the “TSA ΔTm (° C.)” value [3] was 6.3 ± 0.1 °C.
